This is an account of results in ChEMBL document CHEMBL1139600, “Synthesis, in vivo and in vitro biological activity of novel azaline B analogs” (Bioorg Med Chem Lett, 2005).

In assay [1] the target is T1, Gonadotropin-releasing hormone receptor (Homo sapiens, UniProt P30968).
T1 sequence (P30968 whole entry): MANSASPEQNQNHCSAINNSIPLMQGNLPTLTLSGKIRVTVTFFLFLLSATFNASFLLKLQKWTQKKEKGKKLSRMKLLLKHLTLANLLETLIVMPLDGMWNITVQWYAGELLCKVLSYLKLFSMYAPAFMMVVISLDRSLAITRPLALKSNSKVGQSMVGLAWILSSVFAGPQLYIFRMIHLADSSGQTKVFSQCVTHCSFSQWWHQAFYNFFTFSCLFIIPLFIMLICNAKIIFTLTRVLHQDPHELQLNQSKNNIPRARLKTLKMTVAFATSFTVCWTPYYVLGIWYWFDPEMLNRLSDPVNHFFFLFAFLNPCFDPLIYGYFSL
As to the kind of experiment: (§1) In vitro inhibition of human gonadotropin-releasing hormone expressed in HEK293 cells. It counts as cell-based.

The target of assay [2] is T1, Gonadotropin-releasing hormone receptor. Described as §1. It counts as cell-based. The source holds these as a separate data set.

*1 amine or outer side, *2 acyl side, *3 side chain or, on linkers, in order; H or OH if unused. Where a SMILES comes first, the peptide text is derived from it. [ ]: non-standard residue; d: D form. Phe(4-NH(5-NH2triazol-3-yl)) = Nc1nc(Nc2ccc(C[C@H](N)C(=O)O)cc2)n[nH]1; X1 = Nc1nc(Nc2ccc(C[C@@H](N[*:1])C(=O)[*:2])cc2)n[nH]1; dPhe(4-Cl) = N[C@H](Cc1ccc(Cl)cc1)C(=O)O; d2Nal = N[C@H](Cc1ccc2ccccc2c1)C(=O)O; Lys(iPr) = CC(C)NCCCC[C@H](N)C(=O)O; d3Pal = N[C@H](Cc1cccnc1)C(=O)O

As a reminder, the IC50 is the concentration that gives 50% inhibition. Consider `CC(=O)N[C@H](Cc1ccc2ccccc2c1)C(=O)N[C@H](Cc1ccc(Cl)cc1)C(=O)N[C@H](Cc1cccnc1)C(=O)N[C@@H](CO)C(=O)N[C@@H](Cc1ccc(NC(=O)NC(=O)[C@H](N)CC(N)=O)cc1)C(=O)N[C@H](Cc1ccc(NC(N)=O)cc1)C(=O)N[C@@H](CC(C)C)C(=O)N[C@@H](CCCCNC(C)C)C(=O)N1CCC[C@H]1C(=O)N[C@H](C)C(=O)O`, for which the figures for the IC50 in assay [1] and in assay [2] were 2 nM and 2.22 nM, respectively.

On to `CC(=O)N[C@H](Cc1ccc2ccccc2c1)C(=O)N[C@H](Cc1ccc(Cl)cc1)C(=O)N[C@H](Cc1cccnc1)C(=O)N[C@@H](CO)C(=O)N[C@@H](Cc1ccc(NC(=O)C(N)CCN)cc1)C(=O)N[C@H](Cc1ccc(NC(N)=O)cc1)C(=O)N[C@@H](CC(C)C)C(=O)N[C@@H](CCCCNC(C)C)C(=O)N1CCC[C@H]1C(=O)N[C@H](C)C(=O)O` (some centres undefined), for which the IC50 in assay [1] is 3.16 nM; in assay [2], 3.53 nM. On to `CC(=O)N[C@H](Cc1ccc2ccccc2c1)C(=O)N[C@H](Cc1ccc(Cl)cc1)C(=O)N[C@H](Cc1cccnc1)C(=O)N[C@@H](CO)C(=O)N[C@@H](Cc1ccc(NC(=O)NC(=O)[C@H](N)CCC(N)=O)cc1)C(=O)N[C@H](Cc1ccc(NC(N)=O)cc1)C(=O)N[C@@H](CC(C)C)C(=O)N[C@@H](CCCCNC(C)C)C(=O)N1CCC[C@H]1C(=O)N[C@H](C)C(=O)O`, for which the half-maximal inhibitory concentration (IC50) in assay [1] was 6.31 nM; in assay [2], 6.86 nM.

For `CC(C)C[C@H](NC(=O)[C@@H](Cc1ccc(NC(N)=O)cc1)NC(=O)[C@H](Cc1ccc(NC(=O)C(N)CN)cc1)NC(=O)[C@H](CO)NC(=O)[C@@H](Cc1cccnc1)NC(=O)[C@@H](Cc1ccc(Cl)cc1)NC(=O)[C@H](N)Cc1ccc2ccccc2c1)C(=O)N[C@@H](CCCCNC(C)C)C(=O)N1CCC[C@H]1C(=O)N[C@H](C)C(=O)O` (some centres undefined), the IC50 in assay [1] was 3.16 nM; in assay [2], 2.82 nM. The matching figures for `CC(=O)N[C@H](Cc1ccc2ccccc2c1)C(=O)N[C@H](Cc1ccc(Cl)cc1)C(=O)N[C@H](Cc1cccnc1)C(=O)N[C@@H](CO)C(=O)N[C@@H](Cc1ccc(NC(=O)NC(=O)[C@@H](N)CC(N)=O)cc1)C(=O)N[C@H](Cc1ccc(NC(N)=O)cc1)C(=O)N[C@@H](CC(C)C)C(=O)N[C@@H](CCCCNC(C)C)C(=O)N1CCC[C@H]1C(=O)N[C@H](C)C(=O)O`: 2.51 nM and 2.37 nM. In the same order, the values of `CC(=O)N[C@H](Cc1ccc2ccccc2c1)C(=O)N[C@H](Cc1ccc(Cl)cc1)C(=O)N[C@H](Cc1cccnc1)C(=O)N[C@@H](CO)C(=O)N[C@@H](Cc1ccc(NC(=O)[C@@H]2CCC(=O)N2)cc1)C(=O)N[C@H](Cc1ccc(NC(N)=O)cc1)C(=O)N[C@@H](CC(C)C)C(=O)N[C@@H](CCCCNC(C)C)C(=O)N1CCC[C@H]1C(=O)N[C@H](C)C(=O)O` are 2 nM and 1.85 nM.

As for `CC(=O)N[C@H](Cc1ccc2ccccc2c1)C(=O)N[C@H](Cc1ccc(Cl)cc1)C(=O)N[C@H](Cc1cccnc1)C(=O)N[C@@H](CO)C(=O)N[C@@H](Cc1ccc(Nc2n[nH]c(N)n2)cc1)C(=O)N[C@H](Cc1ccc(Nc2n[nH]c(N)n2)cc1)C(=O)N[C@@H](CC(C)C)C(=O)N[C@@H](CCCCNC(C)C)C(=O)N1CCC[C@H]1C(=O)N[C@H](C)C(N)=O` (Ac-[d2Nal][dPhe(4-Cl)][d3Pal]S[Phe(4-NH(5-NH2triazol-3-yl))][X1]L[Lys(iPr)]P[dA]-NH2), the IC50 in assay [1] was 1.26 nM. Consider `CC(=O)N[C@H](Cc1ccc2ccccc2c1)C(=O)N[C@H](Cc1ccc(Cl)cc1)C(=O)N[C@H](Cc1cccnc1)C(=O)N[C@@H](CO)C(=O)N[C@@H](Cc1ccc(NC(=O)C(N)CN)cc1)C(=O)N[C@H](Cc1ccc(NC(N)=O)cc1)C(=O)N[C@@H](CC(C)C)C(=O)N[C@@H](CCCCNC(C)C)C(=O)N1CCC[C@H]1C(=O)N[C@H](C)C(=O)O` (some centres undefined), for which the IC50 was 6.31 nM in assay [1] and 6.37 nM in assay [2]. The matching figures for `CC(=O)N[C@H](Cc1ccc2ccccc2c1)C(=O)N[C@H](Cc1ccc(Cl)cc1)C(=O)N[C@H](Cc1cccnc1)C(=O)N[C@@H](CO)C(=O)N[C@@H](Cc1ccc(NC(=O)C2CCNC(=O)N2)cc1)C(=O)N[C@H](Cc1ccc(NC(N)=O)cc1)C(=O)N[C@@H](CC(C)C)C(=O)N[C@@H](CCCCNC(C)C)C(=O)N1CCC[C@H]1C(=O)N[C@H](C)C(N)=O` (some centres undefined): 2 nM and 1.78 nM.

On to `CC(=O)N[C@H](Cc1ccc2ccccc2c1)C(=O)N[C@H](Cc1ccc(Cl)cc1)C(=O)N[C@H](Cc1cccnc1)C(=O)N[C@@H](CO)C(=O)N[C@@H](Cc1ccc(NCC(=O)n2cc(C)c(=O)[nH]c2=O)cc1)C(=O)N[C@H](Cc1ccc(NC(N)=O)cc1)C(=O)N[C@@H](CC(C)C)C(=O)N[C@@H](CCCCNC(C)C)C(=O)N1CCC[C@H]1C(=O)N[C@H](C)C(N)=O`, for which the figures for the IC50 in assay [1] and in assay [2] were 2.51 nM and 2.46 nM, respectively.
